Test results reported in article PMC4055595, “Pharmacokinetic Compatibility of Ginsenosides and Schisandra Lignans in Shengmai-san: From the Perspective of P-Glycoprotein” (PLoS ONE, 2014).
Read-outs that look alike come from different tables or passages of the source.

Assays:
[1] = Rat plasma pharmacokinetics after single-dose vehicle/SLE and digoxin or GE; type: in vivo, Sprague-Dawley rats; conditions: for AUC(0-inf): read-out: AUCINF_obs; for MRT inf: read-out: MRTINF_obs
Description: This study was carried out in strict accordance with the recommendations in the Guide for the Care and Use of Laboratory Animals of the National Institutes of Health. The protocol was approved by the Committee on the Ethics of Animal Experiments of the China Pharmaceutical University. All surgery was performed under sodium pentobarbital anesthesia, and all efforts were made to minimize suffering. Female healthy Sprague-Dawley rats (200±20 g) were purchased from the Laboratory Animal Center of Peking University Health Science Center (Beijing, PR China) and kept in an environmentally controlled breeding room for at least 3 days before experimentation. The rats were fed with standard laboratory food and water and fasted overnight but with free access to water before the test. To evaluate the effect of single treatment of SLE on the pharmacokinetics of ginsenosides, 24 rats were divided into four groups (group I ∼ group IV) averagely. […] In group II (control group): the rats received a single dose of vehicle (0.5% CMC-Na), and digoxin (0.5 mg/kg) was also given to the rats by intragastric administration. […] In group IV (control group): the rats received a single dose of vehicle (0.5% CMC-Na), and GE (120 mg/kg) was also given to the rats by gavage. […] Plasma was obtained by centrifugation at 5000 g for 10 min and stored at −20°C before analysis. The plasma / cell samples were extracted using a liquid–liquid extraction technique. To each tube containing 100 µL plasma, 10 µL internal standard (digoxin, 1.0 µg/mL) and 1.0 mL of n-butanol were added. The mixture was then vortex-extracted for 2 min, and centrifuged for 10 min at 10,000 g. […] The plasma concentration-time curves of ginsenosides in rats were obtained by plotting the mean plasma concentrations versus time. Pharmacokinetic parameters were calculated using the WinNonlin 6.3 program (Pharsight Inc., Mountain View, CA). The elimination half-life (t 1/2) value was calculated as 0.693/β, where β is the elimination rate constant calculated from the terminal linear portion of the log plasma concentration-time curve. The total areas under the plasma concentration- time curve from time 0 to the last quantifiable time point (AUC0-t) and from time 0 to infinity (AUC0-∞) were calculated using the log trapezoidal rule. [drawing 3] The maximum plasma concentrations (C max) for ginsenosides were obtained by visual inspection of the plasma concentration-time curve, whereas the initial drug concentration (the extrapolated concentration at zero time) of the drug after intravenous injection was calculated by back-extrapolation of the plasma concentration-time curve to the y-axis.

[2] = system: LLC-PK1 cells (lacking P-gp); test: Transport of digoxin and ginsenosides across LLC-PK1 cell monolayers; type: in vitro ADME; conditions: for Effect of verapamil on transport (efflux ratio): 10 µM verapamil; for Effect of SLE on transport (AP→BL, BL→AP): SLE 2.0 and 10.0 µg/mL
Description: (§1) LLC-PK1 cells, a cell line lacking P-gp, and the derived cell line L-MDR1, which over-express human MDR1-encoded P-gp, were grown in minimum essential medium with supplements at 37°C, 5% CO2, and 95% humidity. LLC-PK1 and L-MDR1 cells were seeded at a density of 12×10^6 cells per 150-cm^2 flask and grown for 7 days in medium 199 supplemented with 2 mM glutamine, 10% fetal bovine serum, 10 mg/500 mL of streptomycin, and 10,000 IU/500 mL of penicillin. To ensure a constant expression level of transport protein, L-MDR1 cells were grown in the presence of 640 nM vincristine. Cells were grown as monolayer on polycarbonate membrane filters (Transwell; Costar Corporation, Cambridge, MA) as outlined previously. Transepithelial resistance was measured in each well using a Millicell ERS ohmmeter (Millipore, Bedford, MA); wells registering a resistance of 200 ohms or greater, after correcting for the resistance obtained in control blank wells, were used in the transport experiments.
(§2) The LLC-PK1 and L-MDR1 cells were washed with warm Hank's balanced salt solution HBSS (pH 7.4) twice before transport experiment. HBSS containing verapamil (10 µM), SLE (2.0 and 10.0 µg/mL) or blank HBSS (control) was then loaded into both apical and basolateral chambers. After incubation at 37°C for 1.5 h, GE (100 µg/mL) was added to either the apical or basolateral side to evaluate the transport in absorptive and secretive directions, respectively. The cell monolayer was then incubated for another 2 h. Finally, the concentrations of ginsenosides were determined by LC/MS. All experiments were conducted in triplicate.
(§3) For the transport assay, the apparent permeability (P app, cm/s) in each direction (A→B and B→A) was calculated as follows, where A is the surface area of the membrane inserts (0.0804 cm^2), C 0 is the initial concentration of the compound applied in the donor compartment (2 µM), and △Q is the amount (micromoles) of compound transported over time △t (5 h = 18,000 s): [drawing 1]
(§4) The efflux ratio (ER) was a dimensionless number calculated as the ratio of the apparent permeability in the B→A direction divided by the apparent permeability in the A→B direction. [drawing 2]

[3] = system: LLC-PK1 cells (lacking P-gp); test: Uptake (intracellular accumulation) of digoxin and ginsenosides in LLC-PK1 cells; type: in vitro ADME; conditions: for Effect of verapamil on intracellular accumulation: 10 µM verapamil; for Effect of SLE on intracellular accumulation: SLE 2.0 and 10.0 µg/mL
Description: as §1
LLC-PK1 and L-MDR1 cells were incubated with SLE (2.0 and 10.0 µg/mL) or verapamil (10 µM) for 1.0 h, and then were washed to discard SLE or verapamil before adding 100 µg/mL of GE. The accumulation of GE lasted for 2 h, and the intracellular concentrations of ginsenosides were measured by LC/MS. All experiments were conducted in triplicate.

[4] = biological target: human MDR1-encoded P-gp (L-MDR1 cells) (Homo sapiens, UniProt P08183); test: Transport of digoxin and ginsenosides across L-MDR1 cell monolayers (efflux ratio); type: in vitro ADME; conditions: for Effect of verapamil on efflux ratio / Papp / Effect of SLE on efflux ratio / transport: L-MDR1 cells; for Effect of verapamil on efflux ratio / Papp: 10 µM verapamil; for Effect of SLE on efflux ratio / transport: SLE 2.0 and 10.0 µg/mL; for P-gp substrate classification: summary of transport/uptake in LLC-PK1, L-MDR1 and Caco-2 cells with verapamil
Description: as §1, §2, §3, §4

P-gp (MDR1) = P-gp (MDR1) (Homo sapiens, UniProt P08183); test: as above; type: in vitro ADME; conditions: human, read-out: Efflux ratio (Papp BL-AP / Papp AP-BL)
Description: as §1, §2, §3, §4

[5] = female, Sprague-Dawley, rat, in vivo, po
[6] = LLC-PK1, pH 7.4, with verapamil 10 µM, L-MDR1 cells, presence of 10 µM verapamil
[7] = female, Sprague-Dawley, rat, plasma, po, rats, control: single vehicle, 2 h later digoxin 0.5 mg/kg or GE 120 mg/kg ig
[8] = female, Sprague-Dawley, rat, plasma, po, rats, single SLE 500 mg/kg ig, 2 h later digoxin 0.5 mg/kg or GE 120 mg/kg ig
[9] = rats, single-dose SLE 500 mg/kg vs vehicle, GE ig

Sequence of P-gp (MDR1) (P08183 whole entry): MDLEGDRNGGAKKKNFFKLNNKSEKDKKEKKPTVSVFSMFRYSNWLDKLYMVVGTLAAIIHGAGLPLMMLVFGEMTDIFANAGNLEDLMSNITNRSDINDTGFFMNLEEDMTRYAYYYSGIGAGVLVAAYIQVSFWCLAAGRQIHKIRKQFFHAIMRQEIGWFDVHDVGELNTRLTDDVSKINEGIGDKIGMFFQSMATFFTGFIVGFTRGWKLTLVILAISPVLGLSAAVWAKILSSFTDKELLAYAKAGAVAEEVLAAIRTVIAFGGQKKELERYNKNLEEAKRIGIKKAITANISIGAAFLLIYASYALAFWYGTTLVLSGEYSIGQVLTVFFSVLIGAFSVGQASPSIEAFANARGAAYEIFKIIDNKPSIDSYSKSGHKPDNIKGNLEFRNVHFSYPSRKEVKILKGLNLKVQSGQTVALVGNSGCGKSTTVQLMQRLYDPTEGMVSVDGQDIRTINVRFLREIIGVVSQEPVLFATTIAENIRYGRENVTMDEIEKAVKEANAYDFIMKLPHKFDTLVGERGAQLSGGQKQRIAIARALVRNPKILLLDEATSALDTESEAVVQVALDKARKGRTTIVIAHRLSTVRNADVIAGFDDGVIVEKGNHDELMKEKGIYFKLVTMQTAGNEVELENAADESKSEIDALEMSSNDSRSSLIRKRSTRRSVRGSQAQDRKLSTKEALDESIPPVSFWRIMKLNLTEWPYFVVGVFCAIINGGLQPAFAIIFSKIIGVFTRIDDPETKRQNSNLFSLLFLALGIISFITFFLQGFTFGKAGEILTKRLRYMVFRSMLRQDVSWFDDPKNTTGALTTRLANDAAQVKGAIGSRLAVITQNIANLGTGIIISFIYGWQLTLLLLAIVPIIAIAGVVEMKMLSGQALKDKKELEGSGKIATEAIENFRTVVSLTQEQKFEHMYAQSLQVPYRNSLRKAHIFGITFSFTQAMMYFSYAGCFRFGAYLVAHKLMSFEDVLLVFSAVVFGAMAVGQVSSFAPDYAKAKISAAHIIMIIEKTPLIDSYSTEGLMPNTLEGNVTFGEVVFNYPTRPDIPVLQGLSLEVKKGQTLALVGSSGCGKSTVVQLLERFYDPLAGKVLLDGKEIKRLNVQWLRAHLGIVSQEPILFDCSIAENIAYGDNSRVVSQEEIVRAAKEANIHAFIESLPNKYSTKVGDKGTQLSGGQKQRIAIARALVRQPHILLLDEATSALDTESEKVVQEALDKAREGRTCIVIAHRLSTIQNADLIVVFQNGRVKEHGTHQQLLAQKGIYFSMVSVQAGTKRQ
Sequence of human MDR1-encoded P-gp (L-MDR1 cells) (P08183 whole entry): as above

## CC(C)=CCC[C@](C)(O[C@@H]1O[C@H](CO[C@@H]2O[C@@H](CO)[C@H](O)[C@H]2O)[C@@H](O)[C@H](O)[C@H]1O)[C@H]1CC[C@]2(C)[C@@H]1[C@H](O)C[C@@H]1[C@@]3(C)CC[C@H](O[C@@H]4O[C@H](CO)[C@@H](O)[C@H](O)[C@H]4O[C@@H]4O[C@H](CO)[C@@H](O)[C@H](O)[C@H]4O)C(C)(C)[C@@H]3CC[C@]12C [Rc, ginsenoside Rc]
[1]; [5]
  Tmax: 9.00 ± 2.00 h
  t1/2: 16.90 ± 2.14 h
[1]; female, Sprague-Dawley, rat, in vivo, po, Tmax
  Tmax: 9.5 ± 3 h
[1]; female, Sprague-Dawley, rat, in vivo, po, t1/2
  half-life: 17.3 ± 4.54 h
[2]
  Effect of verapamil on transport (efflux ratio): No transport difference
  Effect of SLE on transport (AP→BL, BL→AP): No transport difference
[3]
  Effect of verapamil on intracellular accumulation: no significant difference
  Effect of SLE on intracellular accumulation: no significant difference
[4]
  Effect of verapamil on efflux ratio / Papp: significantly decrease of ER
  Effect of SLE on efflux ratio / transport: significantly decreased
  P-gp substrate classification: moderate P-gp substrates
P-gp (MDR1); LLC-PK1, pH 7.4, L-MDR1 cells, control (absence of verapamil), GE 100 µg/mL, 2 h
  efflux ratio at 2 h, 100 µg/mL: > 3.5
P-gp (MDR1); [6]
  efflux ratio at 2 h, 100 µg/mL: 1.42

## CC(C)=CCC[C@](C)(O[C@@H]1O[C@H](CO)[C@@H](O)[C@H](O)[C@H]1O)[C@H]1CC[C@]2(C)[C@@H]1[C@H](O)C[C@@H]1[C@@]3(C)CC[C@H](O[C@@H]4O[C@H](CO)[C@@H](O)[C@H](O)[C@H]4O[C@@H]4O[C@H](CO)[C@@H](O)[C@H](O)[C@H]4O)C(C)(C)[C@@H]3CC[C@]12C [Rd, ginsenoside Rd]
[1]; female, Sprague-Dawley, rat, plasma, po, rats, control: single vehicle (0.5% sodium CMC), 2 h later digoxin 0.5 mg/kg or GE 120 mg/kg ig, read-out: t1/2 (converted)
  half-life: 75.4 ± 42.7 h
[1]; [7]
  AUC: 5.35 ± 1.41 µg·h/mL
  Cmax: 0.237 ± 0.079 µg/mL
  AUC(0-inf): 7.41 ± 2.18 µg·h/mL
  MRT inf: 21.6 ± 49 h
[1]; female, Sprague-Dawley, rat, plasma, po, rats, control: single vehicle, 2 h later digoxin 0.5 mg/kg or GE 120 mg/kg ig, read-out: Tmax
  Tmax: 7.5 ± 1 h
[1]; [8]
  AUC: 7.96 ± 2 µg·h/mL
  Cmax: 0.227 ± 0.0578 µg/mL
  AUC(0-inf): 9.04 ± 2.2 µg·h/mL
  MRT inf: 25.1 ± 7.45 h
[1]; female, Sprague-Dawley, rat, plasma, po, rats, single SLE 500 mg/kg ig, 2 h later digoxin 0.5 mg/kg or GE 120 mg/kg ig, read-out: Tmax
  Tmax: 7.5 ± 1 h
[1]; female, Sprague-Dawley, rat, plasma, po, rats, single SLE 500 mg/kg ig, 2 h later digoxin 0.5 mg/kg or GE 120 mg/kg ig, read-out: t1/2 (converted)
  half-life: 21.8 ± 6.78 h
[1]; rats, control: single vehicle, 2 h later digoxin 0.5 mg/kg or GE 120 mg/kg ig
  Cl_F_obs: 0.014 ± 0.003 L/h
[1]; rats, single SLE 500 mg/kg ig, 2 h later digoxin 0.5 mg/kg or GE 120 mg/kg ig
  Cl_F_obs: 0.011 ± 0.003 L/h
[1]; [9]
  Effect of SLE treatment on Cmax: not dramatically changed
  Increase of AUC (AUC0-∞) by coadministration of SLE: 1.86 fold
[2]
  Effect of verapamil on transport (efflux ratio): No transport difference
  Effect of SLE on transport (AP→BL, BL→AP): No transport difference
[3]
  Effect of verapamil on intracellular accumulation: no significant difference
  Effect of SLE on intracellular accumulation: no significant difference
[4]
  Effect of verapamil on efflux ratio / Papp: significantly decrease of ER
  Effect of SLE on efflux ratio / transport: significantly decreased
  P-gp substrate classification: moderate P-gp substrates
P-gp (MDR1); [6]
  efflux ratio at 2 h, 100 µg/mL: 2.19
